Reference: paper PMC4585333, “Novel Regulator of Acylated Ghrelin, CF801, Reduces Weight Gain, Rebound Feeding after a Fast, and Adiposity in Mice” (Frontiers in Endocrinology, 2015)
“Also recorded” adds a separate entry of the source.

Test system: stomach-derived ghrelinoma (SG-1) cells
Assay: Cell-based ghrelin secretion assay (acyl ghrelin in medium, ELISA)
Protocol: Ghrelin secretion studies were performed in stomach-derived ghrelinoma (SG-1) cells, cultured as described previously ([61], [62]). Cells were plated at a density of 5 × 10^4 cells/mL/well on to 24-well plates pre-coated with poly-D-lysine (day 0). On day 2, the cells were treated with the indicated concentrations of test compound CF801, 24 h ahead of the test period and with 50 μM sodium octanoate–bovine serum albumin (BSA), 16 h ahead of the test period. On day 3, the medium was aspirated and the cells were treated with the same concentrations of CF801 in 500 μL serum-free DMEM (Life Technologies, Grand Island, NY, USA) supplemented with 5 mM glucose and 50 μM sodium octanoate–BSA. After a 6-h incubation, the medium was collected, placed on ice, and immediately centrifuged at 800 × g for 5 min. Hydrochloric acid was added to the supernatant to achieve a final concentration of 0.1 N (for stabilization of acyl ghrelin) and stored at −80°C until analysis. Assay for acyl ghrelin and total were performed using commercial ELISA kits (EMD Millipore Corporation, Billerica, MA, USA) according to the manufacturer’s instructions and read in a PowerWave XS Microplate spectrophotometer (BioTek Instruments, Inc., Winooski, VT, USA).
SG-1 cells are derived from stomach ghrelinomas induced by expression of the SV40 large T-antigen under the preproghrelin promoter. These cells retain many of the features of ghrelin cells within primary cultures of gastric mucosal cells from mice ([61]). They also show elevated expression of both preproghrelin and GOAT mRNA with high levels of acylated ghrelin synthesis and secretion ([61]). In order to test CF801’s ability to reduce acyl ghrelin secretion, we performed an in vitro cell-based assay using an SG-1 cell line as previously described ([61], [62]).
Figure 1 CF801 inhibits acyl ghrelin secretion from SG-1 cells following 24 h of incubation. […] All values are expressed as mean ± SEM. *p < 0.05, ***p < 0.001 significant difference in acyl ghrelin concentrations with CF801 treatment when compared to untreated control (n = 6 wells).

In the case of GSAFLSPEHQRK KRRQRRR-NH2 [CF801], the “acyl ghrelin secretion, 100 μM” value (100 μM CF801, 24 h incubation, vs untreated control, n = 6 wells, p < 0.05) is reported as “Significant decreases in secretion; also recorded: significant reductions in acyl ghrelin secretion”, the “acyl ghrelin secretion, 300 μM” value (300 μM CF801, 24 h incubation, vs untreated control, n = 6 wells, p < 0.05) is reported as “Significant decreases in secretion; also recorded: significant reductions in acyl ghrelin secretion” and the “acyl ghrelin secretion, 6-h incubation” value (6 h incubation, p > 0.05, preliminary, data not shown, even at highest concentration of 300 μM) is reported as “No significant effects; also recorded: no effect on acyl ghrelin secretion”.
